Patent publication US20190169574A1, “IN VITRO PRODUCTION OF PANCREATIC BETA CELLS” (NESTEC S.A., priority 2016, published 2019)

What was measured:
[1] = system: human cadaveric islets; conditions: islets that produced low levels of insulin due to prolonged culture; cited from earlier work
[2] = system: maturing beta cells; assay: Analysis of the cell composition of the maturing beta cells (insulin positive cells); type: cell-based; conditions: Isx9 added
Description: FIG. 7: FACS sorting of cells
(§1) Moreover, culturing the PE cells in suspension or in transwell culture systems in presence of Isx9 is showing the same effect of improved glucose-dependent insulin response as shown in FIG. 5 and FIG. 6. […] Both markers are critical for mediating the response of insulin secretion mediated by glucose. The expression of MAFA can also be unprecedently detected by immunohistochemistry as early as at D9 of differentiation as shown in FIG. 7.

[3] = system: PE cells / in vitro maturing beta cells; assay: RNA / gene expression levels of endocrine progenitor and beta cell markers; type: cell-based
Method: FIG. 3: Early exposure of PE cells to Isx9 increases gene expression levels of endocrine progenitors as well as mature beta cell markers. A: Scheme of the protocol setup. B: Early exposure of PE cells to Isx9 (6 μM) for 2-6 days (condition 3) increases RNA expression levels of Ngn3, Nkx2.2 and NeuroD1 at D13 of differentiation, as compared to DMSO exposure (condition 1). The increase of Nkx2.2 RNA expression levels is maintained at D23 of differentiation when in vitro maturing beta cells are exposed to Isx9 (6 uM) in a two-step protocol (condition 4). Controls are represented by primary human islets. First bar of each pair is 2 mM and second bar is at 20 mM. Frozen PE cells were thawed and cultured for 1 day in I medium containing 10 U/mL DNase I in ULA 6WP flat-bottomed plates. The PE cells were subsequently transferred to S3 BASE medium (MCDB131, 8 mM D-glucose, 1.23 g/L NaHCO3, 2% FFA BSA, 1:200 ITX-X, 2 mM glutamax, 100×PS and 0.25 mM vitamin C) containing 50 ng/mL KGF, 0.25 μM Sant1, 100 nM RA and 10 μM Y and cultured for a further 2 days. The resulting cells were then cultured for 4 days using an air-liquid interface culture protocol in Transwell plates. The culture was carried out in S5 BASE medium (MCDB131, 20 mM D-glucose, 1.754 g/L NaHCO3, 2% FFA BSA, 1:200 ITX-X, 2 mM glutamax, 100×PS, 0.25 mM vitamin C and […] heparin) containing 100 nM RA, 1 μM XXI, 0.25 μM Sant1, 10 μM Alk5i II, 1 μM T3, 20 ng/mL beta-cellulin, 10 μM Y and 6 μM isoxazole 9 (ISX-9). Subsequently, the medium was exchanged for S5 BASE medium containing 25 nM RA, 1 μM XXI, 10 μM Alk5i II, 1 μM T3, 20 ng/mL beta-cellulin and 10 μM Y and the cells were cultured for a further 3 days. ISX-9 was not present in this medium. Finally, the medium was exchanged for S6 BASE medium (CMRL 1066, 10% FBS and 100×PS) containing 10 μM Alk5i II, 1 μM T3 and 10 μM Y and the cells were cultured for a further 15 days. ISX-9 was added to this medium at a concentration of 6 μM for the final 14 days of culture (i.e. the first day of culture in this step was carried out in the absence of ISX-9).

[4] = system: iPSC-derived maturing beta cells; assay: In vitro glucose-stimulated insulin secretion test; type: cell-based
Method: FIG. 2: Exposure of PE cells to Isx9 induces glucose response properties to the cells. A: Scheme of the protocol setup. Maturing beta cells have been exposed to DMSO or Isx9 (6 μM) for 13 days, 7 days or 2 days during the maturation step. B: In vitro glucose-stimulated Insulin secretion test have been performed to measure secretion of Insulin in each condition (No Isx9, 13 days Isx9, 7 days Isx9 or 2 days Isx9) induced by low glucose concentration (2 mM) or high glucose concentration (20 mM). The stimulation index of Insulin secretion is determined between the 2 concentrations of glucose on the y axis. FIG. 4: Exposure of PE cells to Isx9 in two-steps increases glucose response properties to the cells. A: Scheme of the protocol setup. In a first step, PE cells have been exposed to DMSO (condition 1) or Isx9 (6 μM) for 2-6 days (condition 2). In a second step, maturing beta cells have been exposed to DMSO (condition 3) or Isx9 (6 uM) for 10 days (condition 4). B: In vitro glucose-stimulated Insulin secretion test have been performed to measure secretion of Insulin in each condition, induced by low glucose concentration (2 mM) or high glucose concentration (20 mM). The stimulation index of Insulin secretion is determined between the 2 concentrations of glucose on they axis. In order from left to right: NKX6.1, Pdx1, NGN3, NKX2-2, NeuroD1. Frozen PE cells were thawed and cultured for 1 day in I medium containing 10 U/mL DNase I in ULA 6WP flat-bottomed plates. The PE cells were subsequently transferred to S3 BASE medium (MCDB131, 8 mM D-glucose, 1.23 g/L NaHCO3, 2% FFA BSA, 1:200 ITX-X, 2 mM glutamax, 100×PS and 0.25 mM vitamin C) containing 50 ng/mL KGF, 0.25 μM Sant1, 100 nM RA and 10 μM Y and cultured for a further 2 days. The resulting cells were then cultured for 4 days using an air-liquid interface culture protocol in Transwell plates. […]

[5] = system: PE cells; assay: Dose response test: toxicity and morphology of PE cell aggregates in culture with increasing doses of Isx9; type: cell-based; conditions: FIG. 1
Method: FIG. 1: Morphological analysis of PE cells in culture with increasing doses of Isx9. PE cells were cultured in suspension without Isx9 (DMSO control carrier), and with increasing concentrations of Isx9 (6 μM, 12 μM, 24 μM, 48 μM and 60 μM) for 4 days and 8 days. 5× and 10× magnification pictures have been collected for each condition and time point.
Dose response tests have been performed to determine toxicity of Isx9 and the optimal concentration of Isx9 to be tested for beta cell differentiation in vitro. High concentrations of Isx9 (from 24 μM up to 60 μM) appears to be toxic as the aggregates of PE cells become cystic after 8 days in culture as shown in FIG. 1. In contrast, the morphology of the aggregates of PE cells is unchanged as compared to the control DMSO condition when using 6 and 12 μM of Isx9. In order to maintain physiological condition, a concentration of 6 μM of Isx9 has been used for the entire protocol. Exposure of maturing beta cells to Isx9 for 13 days is increasing the glucose-stimulated insulin secretion of the cells as compared to the control DMSO condition (FIG. 2). This effect is correlated with the duration of exposure to Isx9 at 6 uM. […] Isx9 induces an increase in RNA expression levels of endocrine markers such as Ngn3, but also beta cell markers as NeuroD1 and Nkx2.2.

[6] = system: adult neural stem cell; conditions: in vitro and in vivo; cited from earlier work
[7] = system: MAFA; assay: MAFA detection by immunohistochemistry; type: cell-based; conditions: as early as at D9 of differentiation; FIG. 7
Description: as §1

[8] = Isx9 6 μM early exposure of PE cells for 2-6 days vs DMSO, D13 of differentiation, FIG. 3

O=C(NC1CC1)c1cc(-c2cccs2)on1 [Isx9, Isoxazole 9]
expression and secretion of insulin [1]: increase
number or quantity of insulin positive cells as compared to DMSO [2]: does not receal an increase
RNA expression level of NeuroD1 [3, 8]: increases
RNA expression level of Ngn3 [3, 8]: increases
RNA expression level of Nkx2.2 [3, 8]: increases
increase of Nkx2.2 RNA expression levels at D23 ([3]; Isx9 6 uM two-step protocol (condition 4), D23 of differentiation, FIG. 3): maintained
MAFA gene expression level ([3]; in presence of Isx9): increase
PCSK1 gene expression level ([3]; in presence of Isx9): increase
effect of Isx9 on glucose response when added in a first step at the PE cell stage (two-step protocol) ([4]; Isx9 6 μM, first step 2-6 days at PE stage, second step 10 days, FIG. 3 and FIG. 4): reinforced
glucose-dependent insulin response ([4]; PE cells cultured in suspension or in transwell culture systems in presence of Isx9, FIG. 5 and FIG. 6): improved
glucose-stimulated insulin secretion of the cells as compared to the control DMSO condition ([4]; maturing beta cells exposed to Isx9 6 μM for 13 days, 2 mM vs 20 mM glucose, effect correlated with duration of exposure, FIG. 2): increasing
morphology of the aggregates of PE cells as compared to the control DMSO condition ([5]; 6 and 12 μM of Isx9): unchanged
toxicity (aggregates of PE cells become cystic) ([5]; high concentrations, from 24 μM up to 60 μM, after 8 days in culture): toxic
adult neural stem cell differentiation [6]: induce
expression of MAFA by immunohistochemistry [7]: detected
